Common to all, as to conditions: Escherichia coli
Assay [1] concerns the target T1, Delta-aminolevulinic acid dehydratase (Homo sapiens) (UniProt P13716).
T1 sequence (whole entry): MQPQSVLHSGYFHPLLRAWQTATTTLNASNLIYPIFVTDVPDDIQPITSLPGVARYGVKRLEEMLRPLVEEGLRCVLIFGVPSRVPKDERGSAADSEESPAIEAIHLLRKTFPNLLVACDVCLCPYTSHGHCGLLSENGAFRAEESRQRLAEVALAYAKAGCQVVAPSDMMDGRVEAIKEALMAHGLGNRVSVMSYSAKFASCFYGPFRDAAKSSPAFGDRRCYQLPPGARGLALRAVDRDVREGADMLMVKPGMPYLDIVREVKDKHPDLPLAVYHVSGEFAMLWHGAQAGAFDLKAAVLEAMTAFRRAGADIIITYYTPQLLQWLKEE
The assay can be described thus: Retention of porphobilinogen synthase activity in presence of 0.3 uM of the compound.

Assay [2] addresses T1, Delta-aminolevulinic acid dehydratase (Homo sapiens). The assay can be described thus: Inhibitory activity against porphobilinogen synthase in presence of 5 mM for 30 min; No loss in activity.
The target is the same in assay [3]. The assay can be described thus: Inhibitory activity against porphobilinogen synthase in presence of 150 uM over 30 min.

Each structure is given as a SMILES string.

As for `NCC(=O)CCC(=O)O`, in assay [1], the Retention was found to be 80%.
On to `NCC(=O)OCC(=O)O`, for which, in assay [2], the Loss of activity entry was “No loss in activity”.
As for `NCC(=O)SCC(=O)O`, the Loss of activity in assay [3] was 80%.

Source of the values: ChEMBL document CHEMBL1128629, “Mechanism-based inactivation of porphobilinogen synthase: Substitution of ketone functionality in the substrate with a thioester” (Bioorg Med Chem Lett, 1995).
